The results in this text go back to patent US12649732B2, “Polymorphs of (R)-N-(5-(5-isopropyl-1,2,4-oxadiazol-3-yl)-2,3-dihydro-1H-inden-1-yl)-2-methyl-2H-tetrazole-5-carboxamide” (Cytokinetics, Inc., priority 2019, dated 2026).

What all share (format): physicochemical
Series [1] can be described thus: Stability study: XRPD after storage for 7 days. As for the experimental part:
Polymorphic Form I of (R)—N-(5-(5-isopropyl-1,2,4-oxadiazol-3-yl)-2,3-dihydro-1H-inden-1-yl)-2-methyl-2H-tetrazole-5-carboxamide was analyzed by XRPD, DSC, TGA, and DVS. […] As shown in the TGA graph, no weight loss prior to degradation, which starts at about 230° C., was observed. […] Chemical stability study of Form I was also performed. XRPD patterns were measured after storage of samples of Form I for 7 days at 40° C./75% RH and 25° C./97% RH.
Polymorphic Form I of (R)—N-(5-(5-isopropyl-1,2,4-oxadiazol-3-yl)-2,3-dihydro-1H-inden-1-yl)-2-methyl-2H-tetrazole-5-carboxamide (500 mg) was suspended in n-propyl acetate (50 vol) and stirred at 50° C. After 10 minutes, a clear solution was obtained. The solvent was removed under reduced pressure (100 ml round-bottom flask). The solid obtained was analyzed by XRPD and determined as a mixture of Form I and Form II. The solid was suspended in n-propyl acetate (40 vol) and stirred at 50° C. After 10 minutes, a clear solution was obtained. The solvent was removed under reduced pressure in a larger flask (250 ml round-bottom flask). The resulting solid was analyzed by XRPD, DSC, TGA, and GVS and determined as Form II. […] As shown in the DSC graph (sample heated at 10° C./min), an endotherm onset at about 133° C., an exotherm onset at about 135° C., and an endotherm onset at about 152° C. were observed. As shown in the TGA graph, a weight loss of about 1.1% between about 83° C. and about 160° C. prior to degradation was observed. […] Chemical stability study of Form II was also performed. XRPD patterns were measured after storage of samples of Form II for 7 days at 40° C./75% RH and 25° C./97% RH.

Series [2] can be described thus: Polymorph screening (isothermal maturation, liquid assisted grinding, temperature cycling maturation). As for the experimental part: Polymorphic Form I of (R)—N-(5-(5-isopropyl-1,2,4-oxadiazol-3-yl)-2,3-dihydro-1H-inden-1-yl)-2-methyl-2H-tetrazole-5-carboxamide (ca. 2 g) was suspended in MeCN:H2O (90 vol) and stirred at 50° C. for 40 minutes. The clear solution was filtered and flash frozen in a dry ice/acetone bath and placed for lyophilisation. The solid isolated was analyzed by XRPD and determined to be poorly crystalline Form I.
Poorly crystalline Form I (ca. 15 mg) was dispensed into HPLC vials. Solvent was added (10 vol) and the samples were shaken/stirred at 50° C. After 6 days, suspensions were filtered through a Millipore filter plate and dried under suction for 30 minutes prior to XPRD analysis.
Polymorphic Form I of (R)—N-(5-(5-isopropyl-1,2,4-oxadiazol-3-yl)-2,3-dihydro-1H-inden-1-yl)-2-methyl-2H-tetrazole-5-carboxamide was dispensed into HPLC vials and two stainless steel grinding balls (3 mm diameter) added. Solvent was added (10 μl) and the samples were subjected to grinding on a Fritsch planetary mill (500 rpm, 2 hour duration). Solids obtained post grinding were analyzed by XRPD. As shown below in Table 5, Form I was obtained from all of the experiments.
Polymorphic Form I of (R)—N-(5-(5-isopropyl-1,2,4-oxadiazol-3-yl)-2,3-dihydro-1H-inden-1-yl)-2-methyl-2H-tetrazole-5-carboxamide (20 mg) was dispensed into HPLC vials. The selected solvent was added (5 vol) to each sample then placed for maturation (RT/50° C., cycled with 4 hours at each temperature). After 2 days, the samples were removed from the maturation chamber. Suspensions were filtered through a Millipore plate and dried under suction for 20 minutes prior to XRPD analysis. Solutions obtained were treated with increasing aliquots of anti-solvent until a suspension was obtained or maximum of 5 eq. had been added. Samples were shaken at 25° C. for 30 minutes. Suspensions obtained after shaking were filtered through a Millipore plate and dried under suction for 20 minutes prior to XRPD analysis. Solutions and samples containing a small amount of solid were shaken at 25° C. overnight with any solutions obtained allowed to evaporate at RT. […]

Series [3] in a line: Dynamic Vapor Sorption (DVS). The settings on record: 0-90% RH range, 25° C. How it is done: DVS data were obtained using a SMS DVS Intrinsic moisture sorption analyzer, controlled by DVS Intrinsic Control software. The sample temperature was maintained at 25° C. by the instrument controls. The humidity was controlled by mixing streams of dry and wet nitrogen, with a total flow rate of 200 ml/min. The relative humidity was measured by a calibrated Rotronic probe (dynamic range of 1.0-100% RH), located near the sample. The weight change, (mass relaxation) of the sample as a function of % RH was constantly monitored by a microbalance (accuracy ±0.005 mg).
Typically, 5-30 mg of sample was placed in a tared mesh stainless steel basket under ambient conditions. The sample was loaded and unloaded at 40% RH and 25° C. (typical room conditions). A moisture sorption isotherm was performed as outlined below (2 scans per complete cycle). The standard isotherm was performed at 25° C. at 10% RH intervals over a 0-90% RH range. Typically, a double cycle (4 scans) was carried out. Data analysis was carried out within Microsoft Excel using the DVS Analysis Suite.

Series [4] can be described thus: Competitive slurry experiments between Form I and Form II. As for the experimental part: Competitive slurry experiments between Form I and Form II in different solvents were conducted. Form I was suspended in the selected solvents at both 50° C. and 5° C. and stirred for a minimum of 1 hour before filtration to create a saturated solution. Form I (ca. 10 mg) and Form II (ca. 10 mg) were combined in a HPLC vial. Each sample was treated with 0.5 ml of the selected saturated solution. The samples were stirred at the selected temperature for 6 days. Solids obtained were filtered and dried under suction for a few minutes prior to characterization. Samples were slightly wet during XRPD analysis.

In the case of `CC(C)c1nc(-c2ccc3c(c2)CC[C@H]3NC(=O)c2nnn(C)n2)no1` [Form I, (R)—N-(5-(5-isopropyl-1,2,4-oxadiazol-3-yl)-2,3-dihydro-1H-inden-1-yl)-2-methyl-2H-tetrazole-5-carboxamide], the “changes in XRPD patterns after storage” value in series [1] (7 days at 25° C./97% RH) and in series [1] (7 days at 40° C./75% RH) was “No significant changes” in each case. The “relative stability of form” value is “most stable form” in series [2] (isothermal maturation, 50° C., 6 days, various solvents); “most stable form” in series [2] (liquid assisted grinding, 500 rpm, 2 hour, various solvents); “most stable form” in series [2] (temperature cycling maturation RT/50° C., 2 days, and anti-solvent screen). The “moisture uptake as determined by DVS” value in series [3] is recorded as 0.36 % w/w.

On to `CC(C)c1nc(-c2ccc3c(c2)CC[C@H]3NC(=O)c2nnn(C)n2)no1` [Form II, (R)—N-(5-(5-isopropyl-1,2,4-oxadiazol-3-yl)-2,3-dihydro-1H-inden-1-yl)-2-methyl-2H-tetrazole-5-carboxamide], for which the “changes in XRPD patterns after storage” value in series [1] (7 days at 25° C./97% RH) and in series [1] (7 days at 40° C./75% RH) was “No significant changes” each time. The “moisture uptake as determined by DVS” value in series [3] stood at 0.24 % w/w.

Regarding `CC(C)c1nc(-c2ccc3c(c2)CC[C@H]3NC(=O)c2nnn(C)n2)no1` [Form I and Form II, (R)—N-(5-(5-isopropyl-1,2,4-oxadiazol-3-yl)-2,3-dihydro-1H-inden-1-yl)-2-methyl-2H-tetrazole-5-carboxamide], the “XRPD analysis (form after slurry)” value is given as “Form 1” in series [4] (Sample 01, MeCN, 5 °C, 6 days); “Form 1” in series [4] (Sample 02, n-propyl acetate, 5 °C, 6 days); “Form 1” in series [4] (Sample 03, MEK, 5 °C, 6 days); “Form 1” in series [4] (Sample 04, H2O:MeCN (25:75), 5 °C, 6 days); “Form 1” in series [4] (Sample 05, H2O:MeCN (75:25), 5 °C, 6 days); “Form I” in series [4] (Sample 06, MeCN, 50 °C, 6 days). In addition, the “XRPD analysis (form after slurry)” value is “Form I” in series [4] (Sample 07, n-propyl acetate, 50 °C, 6 days); “Form I” in series [4] (Sample 09*, H2O:MeCN (25:75), 50 °C, 6 days, also treated with neat solvent); “Form I” in series [4] (Sample 10, H2O:MeCN (75:25), 50 °C, 6 days); “Form I” in series [4] (Sample 11, MEK, 50 °C, 6 days (repeat of 08)); “Form I” in series [4] (Sample 12, H2O:MeCN (25:75), 50 °C, 6 days (repeat of 09)).
